Earlier results as cited in paper PMC9128007 (ACS Pharmacology & Translational Science, 2022).

Test system: panel of seven proteases including selected cysteine (3), serine (3), and aspartyl (1) proteases

CC(C)(C)[C@H](NC(=O)C(F)(F)F)C(=O)N1C[C@H]2[C@@H]([C@H]1C(=O)N[C@H](C#N)C[C@@H]1CCNC1=O)C2(C)C [Nirmatrelvir]
activity in a panel of seven proteases: lack of activity
